Experimental findings from patent US8093274B2, “Inhibitors of protein prenyltransferases” (The Regents of the University of California, priority 2006, dated 2012) are described below.

For orientation: IC50 means the concentration that inhibits the measured activity by half.

Test [1] concerns the target GGTase I (substrate RhoA) (Homo sapiens, UniProt P49354+P53609). Kind of test: GGTase I filter-binding assay with RhoA as substrate. The format is biochemical. The following applies: for specificity of GGTase I inhibition: compared with FTase and GGTase-II, varying concentrations, FIGS. 20A-20C. The procedure: (§1) The pilot library was screened for inhibitors of protein geranylgeranyltransferase type I. Protein prenyltransferase assays were carried out by using filter binding. Two different substrates, RhoA and K-Ras4B, were used for the assay. RhoA ends with the CaaL motif and is an exclusive substrate for GGTase I, while K-Ras4B ends with the CaaX motif and is modified by both GGTase I and FTase.
(§2) The % activity of GGTase I was determined as follows: a working solution that contained each compound in DMSO at the concentration of 1 mM was prepared. The working solution was added to GGTase I reaction mixture so that the final concentration of the compound is 50 μM. GGTase I activity was assayed by incubating [^3H]GGPP with K-Ras4B or RhoA protein in the presence of GGTase I and examining radioactivity incorporated into the substrate protein by spotting onto a filter paper. After washing with TCA, ethanol and acetone, the radioactivity retained on the filter was determined by the use of a scintillation counter. GGTase I activity in the presence of DMSO was taken as a 100% value and the activity in the presence of the compound was shown as percent activity compared with the 100% value. […] For 6-aryl-4-mercapto-N-sulfonyl-piperidine-3-carboxylic acid 11 the 4-mercapto substituent appeared critical to endowing GGTase inhibitory activity. […] 4-Chlorobenzylthio substituent was the next best; 12 compounds out of 21 containing the 4-chlorobenzylthio moiety were active. 4-Benzylthio substituent was also good; 7 piperidines out of 21 bearing 4-benzylthio group were active. […] 19 imines (C15>C12=C41>C40>C01=C11>C05=C10=C30=C35=C37=C38>C02, C03, C04, C06, C39=C43) out of 21 appeared in the GGTIs. […] This corresponds to 47 6-aryl-4-mercapto-N-sulfonyl-piperidine-3-carboxylic acids out of 357 compounds.
(§3) A collection of 138 heterocycles was screened for their ability to inhibit the activity of human GGTase-I to geranylgeranylate K-Ras4B or RhoA. Purified GGTase-1 was incubated with its substrate protein K-Ras4B or RhoA, [^3H]GGPP, and the 138 compounds. After 30 min, the degree of incorporation of tritiated geranylgeranyl groups was measured using a scintillation counter.
(§4) The GGTase-I assay was carried out using RhoA as a substrate protein, GGTase-I (JENA Bioscience) and [3H]geranylgeranyl pyrophosphate. Incubation was for 30 min at 37 C. GGTase-H (or RabGGTase) assay was carried out using YPT1 as a substrate protein, GGTase-H (Calbiochem, San Diego, Calif.) plus REP1 (Calbiochem) and [3H]geranylgeranyl pyrophosphate. Incubation was for 30 min at 37 C. FIGS. 20D-20F show the three dimensional structure of GGTase I (D), FTsse (E) and GGTase II (F) which can be obtained from X-ray diffraction studies of protein crystals.

The subject of test [2] is K562 cells. Kind of test: Cell cycle profile of K562 cells by flow cytometry. It is filed as cell-based, human. The following applies: 48 hours; 0 to 10 mM. On the procedure:
K562 cells were treated with indicated concentrations (mM) of P3-E5 (ranging from […]) or GGTI-298 (ranging from […]) for 48 hours. Cell cycle profiles were monitored by flow cytometry. Percentages of cells in each phase of the cell cycle are indicated by different colors. Red: G0/G1 phase. Black: S phase. Gray: G2/M phase.
In general terms: In flow cytometry, cells or beads pass a laser one at a time.

Test [3] has as its system geranylgeranylated Rheb (Rheb-CSVL) in HEK 293 cells. Put plainly: Geranylgeranylation of Rheb-CVSL in HEK 293 cells, mobility shift on Western blot. The format is cell-based, human. The following applies: for inhibition of geranylgeranylation of Myc-HA tagged-Rheb-CVSL in cells: HEK 293 cells treated for 48 hours; for inhibition of geranylgeranylation of Rheb-CSVL within the cell: HEK 293 cells, FIG. 33. An excerpt:
Finally, we investigated in vivo effects of compounds 22 (also known as UC-22) and 23 (also known as UC-23). Human embryonic kidney (HEK) 293 cells were transfected with the Rheb-CSVL construct that expresses the geranylgeranylated form of the Rheb protein. Inhibition of the geranylgeranylation of this protein can be detected from a shift in its mobility on SDS polyacrylamide gel; the unprocessed form appears as a slowly migrating band.
Human embryonic kidney (HEK) 293 cells expressing Myc-HA tagged-Rheb-CVSL (upper) or Myc-HA tagged-Rheb-WT (lower) were treated with P3-E5 for 48 hours and then lysed. The cell lysates were run on a SDS polyacrylamide gel and immunoblotted using anti-Myc or anti-Actin antibody. The descriptors P and U indicate processed and unprocessed Rheb, respectively.
Human embryonic kidney (HEK) 293 cells expressing Myc-HA tagged-Rheb-CVSL (upper) or Myc-HA tagged-Rheb-WT (lower) were treated with mP5-H6a (also referred to as mP5-H6), or GGTI-298 for 48 hours and then lysed. Lysates were run on a SDS polyacrylamide gel and immunoblotted with anti-Myc or anti-Actin antibody.
On the technique in general: In western blotting, separated proteins are transferred to a membrane and probed.

A further test deals with GGTase-I. Put plainly: GGTase-I inhibition kinetics, double reciprocal plots. It is filed as biochemical. The following applies: varying GGPP with fixed RhoA. The procedure:
as §4
The graphs in FIG. 21 show double reciprocal plots obtained from substrate velocity curves for the inhibition of GGTase-I by P3-E5 (left) and P5-H6 (right). The upper figures show varying GGPP concentrations with a fixed RhoA protein concentration were used. The lower figures show varying RhoA protein concentrations with a fixed GGPP concentration was used. The following scale was used to prepare the graphs: Y-axis: 1/v, fmol/min. X-axis: 1/s, mM.

The target of test [4] is T1, protein farnesyltransferase (FTase) (Rattus norvegicus, UniProt Q02293+Q04631).
T1 construct: purchased JENA Bioscience
Put plainly: Protein farnesyltransferase assay with K-Ras4B and [3H]FPP. The following applies: for inhibition of FTase: at concentrations at which they inhibited GGTase-I by more than 90%. It is filed as biochemical. From the text: To further characterize the pilot library, inhibitors of protein farnesyltransferase were identified. This was accomplished by using K-Ras4B as a substrate protein, tritiated farnesylpyrophosphate ([^3H]FPP) and protein farnesyltransferase. See Finegold, A. A., Johnson, D. I., Farnsworth, C. C., Gelb, M. H., Judd, S. R., Glomset, J. A. and Tamanoi, F. (1991) Protein geranylgeranyltransferase of Saccharomyces cerevisiae is specific for Cys-Xaa-Xaa-Leu motif and requires the CDC43 gene product but not the DPRI gene product. Proc. Natl. Acad. Sci. USA 88, 4448-4452. […] On the other hand, the structure of the compounds P1-F11, P2-B7 and P2-E9 resemble those of GGTIs. The FTI P1-F11 resembles the GGTI P1-F10, while the FTI P2-B7 resembles the GGTI P2-C10. The FTI P2-E9 is similar to the GGTI P2-G3. Similarity of some GGTI and FTI compounds may point to common structural features between the two closely related enzymes. As described before, FTase and GGTase I have similar three-dimensional structures and a shared alpha subunit. On the other hand, FTase specific inhibitors may recognize a region(s) that is different between the two enzymes.
Varying concentrations of the two compounds were added to each enzyme reaction. The FTase (protein farnesyltransferase) assay was carried out using K-Ras4B as a substrate protein, FTase (JENA Bioscience, San Diego, Calif.) and […] pyrophosphate. Incubation was for 30 min at 37 C.

Test [5] concerns K562 cells. Put plainly: Proliferation of K562 cells, cell counting kit-8. The following applies: 72 hours; relative to DMSO control. It is filed as cell-based, human. On the procedure:
(§5) K562 cells are a cell line of human erythroleukemia cells. The K562 cells were treated with P3-E5, P5-H6 or GGTI-298 (a known GGTI compound illustrated in FIG. 27) for 72 hours and then cell number was counted using cell counting kit-8 (Dojindo, Gaithersburg, Md.). Cell viability relative to the DMSO control and the known GGTI compound is plotted in FIG. 23.

In test [6] the target is GGTase I (substrate K-Ras4B) (Homo sapiens, UniProt P49354+P53609). Kind of test: GGTase I filter-binding assay with K-Ras4B as substrate. The following applies: 50 μM compound; DMSO = 100%; smaller numbers indicate better inhibition; first number of pair; read-out: % activity of GGTase I for protein K-Ras4B in the presence of the compound. It is filed as biochemical. The procedure: as §1, §2, §3

For the next test, the system named is Panc-1 cells. Kind of test: Proliferation of Panc-1 cells. It is filed as cell-based, human. The procedure: as §5
(§6) Panc-1 cells (Pancreatic cancer cell line) and Jurkat cells (T-cell leukemia) were treated with 12.5 μM of P5-H6 or 12.5 μM of mP5-H6a for 72 hours. The cell number was counted as described in Example 5.

In another test the test system is MDA-MB231. Put plainly: Proliferation of MDA-MB231 cells. The format is cell-based, human.
The test system of another test is BT474. Put plainly: Proliferation of BT474 cells. It is filed as cell-based, human.
For another test, the system named is MiaPaCa2. Put plainly: Proliferation of MiaPaCa2 cells. The format is cell-based, human.
The test system of a further test is Jurkat cells. Kind of test: Proliferation of Jurkat cells. It is filed as cell-based, human. The procedure:
as §5, §6

`Cc1ccccc1S(=O)(=O)N1[C@@H](c2cccc(Cl)c2)C(C(=O)O)=CC[C@H]1c1ccc(Cl)cc1` (relative stereo) [P3-E5]: in [1] (FIG. 15, read-out: IC50 for the inhibition of GGTase I using RhoA as a substrate), the IC50 worked out at 7 µM. For the same molecule, in test [1], the “specificity of GGTase I inhibition” value is “specifically inhibit GGTase I”. For the same molecule, in the test with K562 cells [2], the “cell cycle effect in K562 cells” value is recorded as “induces G1 arrest in K562 cells”. Besides, in test [3], the “inhibition of geranylgeranylation of Myc-HA tagged-Rheb-CVSL in cells” value is on record as “inhibits geranylgeranylation in cells” and the “inhibition of geranylgeranylation of Rheb-CSVL within the cell” value is “inhibit geranylgeranylation within the cell”. In addition, in the test on GGTase-I, the “mode of inhibition of GGTase-I” value is “compete with a substrate protein but do not compete with GGPP”. Also, the “inhibition of FTase activity” value in [4] (FIG. 16, concentration increased to 100 μM) was “no inhibition of FTase activity was observed”. In addition, the “inhibition of FTase” value in test [4] is “did not inhibit FTase”. Moreover, the “inhibition of proliferation of K562 cells” value in the test with K562 cells [5] was “inhibit proliferation of K562 cells”.

As for `Cc1ccccc1S(=O)(=O)N1[C@@H](c2ccc(Cl)cc2)C(C(=O)O)=C[C@H]1C(C)(C)C` (relative stereo) [P5-H6], the activity at 50 µM came out at 5.3% in [1] (50 μM compound, DMSO = 100%, smaller numbers indicate better inhibition, second number of pair, read-out: % activity of GGTase I for protein RhoA in the presence of the compound) and 13.3% in test [6]. In addition, the “specificity of GGTase I inhibition” value in test [1] was “specifically inhibit GGTase I”. Moreover, in test [3], the “inhibition of geranylgeranylation of Rheb-CSVL within the cell” value is reported as “inhibit geranylgeranylation within the cell”. Besides, the “mode of inhibition of GGTase-I” value in the test with GGTase-I is “compete with a substrate protein but do not compete with GGPP”. In test [4], the “inhibition of FTase” value was “did not inhibit FTase”. For the same molecule, in the test with K562 cells [5], the “inhibition of proliferation of K562 cells” value was “inhibit proliferation of K562 cells”.

With `COC(=O)[C@H](Cc1ccccc1)NCC(=O)OCC1=C[C@@H](C(C)(C)C)N(S(=O)(=O)c2ccccc2C)C1c1ccc(Cl)cc1` (stereo partly drawn) [mP5-H6], the “inhibition of proliferation of pancreatic cancer cell line Panc-I” value in the test with Panc-1 cells is “inhibits proliferation”. Besides, the “inhibition of growth of Panc-1 cells relative to P5-H6” value with Panc-1 cells (12.5 μM, 72 hours) was “inhibits the growth of Panc-1 cells and Jurkat cells better than P5-H6”. In the test with MDA-MB231, the “inhibition of proliferation of breast cancer cell line MDA-MB231” value was “inhibits proliferation”. Further, the “inhibition of geranylgeranylation of Myc-HA tagged-Rheb-CVSL in cells” value in test [3] is “inhibits geranylgeranylation in vivo”. The “inhibition of proliferation of breast cancer cell line BT474” value in the test on BT474 was “inhibits proliferation”. Besides, the “inhibition of proliferation of pancreatic cancer cell line MiaPaCa2” value with MiaPaCa2 is listed as “inhibits proliferation”. The “inhibition of proliferation of leukemic cell line Jurkat” value in the test with Jurkat cells is reported as “inhibits proliferation”. In addition, the “inhibition of growth of Jurkat cells relative to P5-H6” value with Jurkat cells (12.5 μM, 72 hours) was “inhibits the growth of Panc-1 cells and Jurkat cells better than P5-H6”.
